{"source": "ChEMBL document CHEMBL1148493", "about": "“A combination of docking/dynamics simulations and pharmacophoric modeling to discover new dual c-Src/Abl kinase inhibitors” (J Med Chem, 2006)", "key": {"[1]": {"molecular_target": "Proto-oncogene tyrosine-protein kinase Src (Homo sapiens, UniProt P12931)", "sequence (P12931 2-536 limits assumed)": "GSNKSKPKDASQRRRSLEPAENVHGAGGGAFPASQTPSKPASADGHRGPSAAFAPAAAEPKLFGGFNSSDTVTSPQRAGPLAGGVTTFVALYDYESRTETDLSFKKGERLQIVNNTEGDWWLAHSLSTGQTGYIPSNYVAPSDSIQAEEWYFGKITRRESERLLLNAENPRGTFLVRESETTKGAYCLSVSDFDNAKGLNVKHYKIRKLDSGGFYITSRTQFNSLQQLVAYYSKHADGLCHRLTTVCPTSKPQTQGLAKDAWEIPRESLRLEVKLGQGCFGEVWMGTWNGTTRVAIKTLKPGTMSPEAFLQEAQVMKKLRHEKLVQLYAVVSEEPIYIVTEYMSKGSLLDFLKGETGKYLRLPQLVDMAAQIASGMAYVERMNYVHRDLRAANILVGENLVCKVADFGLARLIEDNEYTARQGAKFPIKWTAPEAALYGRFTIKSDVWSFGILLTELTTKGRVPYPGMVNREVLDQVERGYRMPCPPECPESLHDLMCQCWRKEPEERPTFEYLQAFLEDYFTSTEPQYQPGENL", "test": "Binding affinity to human recombinant Src"}, "[2]": {"molecular_target": "Tyrosine-protein kinase ABL1 (Homo sapiens) (UniProt P00519)", "sequence (P00519 whole entry)": "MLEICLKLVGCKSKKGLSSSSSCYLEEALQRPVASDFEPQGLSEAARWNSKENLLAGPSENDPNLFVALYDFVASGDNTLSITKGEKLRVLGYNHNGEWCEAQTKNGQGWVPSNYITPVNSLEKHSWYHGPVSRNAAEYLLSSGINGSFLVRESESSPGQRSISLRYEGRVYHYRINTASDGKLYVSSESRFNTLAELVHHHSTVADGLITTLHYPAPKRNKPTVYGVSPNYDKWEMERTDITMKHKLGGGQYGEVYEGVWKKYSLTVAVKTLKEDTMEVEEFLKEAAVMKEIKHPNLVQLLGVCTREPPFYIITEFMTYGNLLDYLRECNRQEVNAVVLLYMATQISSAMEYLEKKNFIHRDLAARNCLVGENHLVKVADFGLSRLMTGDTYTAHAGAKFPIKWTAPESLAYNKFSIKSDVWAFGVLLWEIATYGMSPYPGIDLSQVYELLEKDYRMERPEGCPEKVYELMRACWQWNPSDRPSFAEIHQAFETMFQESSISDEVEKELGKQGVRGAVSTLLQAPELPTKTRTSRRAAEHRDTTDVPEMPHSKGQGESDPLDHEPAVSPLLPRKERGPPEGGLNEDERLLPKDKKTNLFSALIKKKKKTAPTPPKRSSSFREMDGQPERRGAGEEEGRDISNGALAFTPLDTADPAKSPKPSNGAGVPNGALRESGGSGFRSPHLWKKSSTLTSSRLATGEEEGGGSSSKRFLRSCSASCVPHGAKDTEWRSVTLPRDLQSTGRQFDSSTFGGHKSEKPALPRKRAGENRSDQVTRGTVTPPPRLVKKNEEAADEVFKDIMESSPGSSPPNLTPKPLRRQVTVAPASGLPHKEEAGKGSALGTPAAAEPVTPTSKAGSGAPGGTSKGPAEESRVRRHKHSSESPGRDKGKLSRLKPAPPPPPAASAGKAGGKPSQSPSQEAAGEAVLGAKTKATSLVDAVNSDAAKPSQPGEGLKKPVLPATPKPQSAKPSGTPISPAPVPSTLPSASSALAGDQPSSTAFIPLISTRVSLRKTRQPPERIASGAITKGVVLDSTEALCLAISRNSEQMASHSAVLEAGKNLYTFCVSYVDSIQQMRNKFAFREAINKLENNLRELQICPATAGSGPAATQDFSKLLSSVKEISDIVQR", "description": "Binding affinity to human recombinant Abl"}}}
{"smiles": "O=C1NN(c2ccc(I)cc2)C(=O)/C1=C\\c1ccc(N2CCOCC2)cc1", "values": [{"measurement": "ID50", "setting": "[1]", "value": "> 2000", "unit": "µM"}]}
{"smiles": "O=C(Nc1nnc(CCc2ccccc2)s1)c1ccccc1", "values": [{"measurement": "Ki", "setting": "[1]", "value": 2.9, "unit": "µM"}, {"measurement": "ID50", "setting": "[2]", "value": "> 2000", "unit": "µM"}]}
{"smiles": "O=C(Nc1nnc(CCc2ccccc2)s1)c1ccc(Cl)cc1Cl", "values": [{"measurement": "ID50", "setting": "[2]", "value": "> 2000", "unit": "µM"}]}
{"smiles": "O=C1NN(c2ccccc2)C(=O)/C1=C\\c1ccccc1OCc1ccccc1", "values": [{"measurement": "ID50", "setting": "[2]", "value": "> 2000", "unit": "µM"}]}
{"smiles": "COc1ccc(C(=O)Nc2nnc(Cc3c[nH]c4ccccc34)s2)cc1", "values": [{"measurement": "ID50", "setting": "[2]", "value": "> 2000", "unit": "µM"}]}
{"smiles": "CCN(CC)c1ccc(/C=C2/C(=O)NN(c3ccc(I)cc3)C2=O)c(O)c1", "values": [{"measurement": "ID50", "setting": "[2]", "value": "> 2000", "unit": "µM"}]}
{"smiles": "Cc1ccc(-c2cnc(NC(=O)c3ccc(Br)cc3)s2)cc1", "values": [{"measurement": "ID50", "setting": "[1]", "value": "> 2000", "unit": "µM"}, {"measurement": "ID50", "setting": "[2]", "value": "> 2000", "unit": "µM"}]}
{"smiles": "O=C(Nc1ccccc1)Nc1nnc(Cc2ccccc2)s1", "values": [{"measurement": "ID50", "setting": "[1]", "value": "> 2000", "unit": "µM"}]}
